From patent publication US8952024B2, “Herbicidal pyrimidone derivatives” (E I du Pont de Nemours and Company, priority 2009, dated 2015)

Assays:
Format in all cases: in vivo
[1] = system: canarygrass (Phalaris minor); experiment: Test B postemergence plant response
Summary of the method: (§1)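 Visual ratings from 0 (no effect) to 100 (complete control), made against controls 13–15 days after treatment, kept in a greenhouse. Compounds were applied postemergence to potted plants at the 1- to 4-leaf stage (2–18 cm).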

[2] = system: windgrass (Apera spica-venti); experiment: Test B postemergence plant response; conditions: for Plant response rating, Windgrass: Postemergence
Summary of the method: as §1

[3] = system: chickweed (Stellaria media); experiment: Test B postemergence plant response
Summary of the method: as §1

kochia (Kochia scoparia) = experiment: Test B pre-/postemergence plant response
Summary of the method: (§2)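 Seeds sown in loam–sand blend were treated preemergence, and plants at 2–18 cm (1- to 4-leaf stage) in peat-based medium were treated postemergence; compounds were formulated in non-phytotoxic solvent with surfactant. After 13–15 days in greenhouse, response was visually rated against controls, 0 (no effect) to 100 (complete control).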

soybean (Glycine max) = experiment: Test B pre-/postemergence plant response
Summary of the method: as §2

[4] = system: wheat (Triticum aestivum); experiment: Test B pre-/postemergence plant response
Summary of the method: as §2

[5] = system: Surinam grass (Brachiaria decumbens); experiment: Test B pre-/postemergence plant response
Summary of the method: as §2

wild oat (Avena fatua) = experiment: Test B pre-/postemergence plant response
Summary of the method: as §2

[6] = system: velvetleaf (Abutilon theophrasti); experiment: Test B pre-/postemergence plant response
Summary of the method: as §2

[7] = system: pigweed (Amaranthus retroflexus); experiment: Test B pre-/postemergence plant response
Summary of the method: as §2

[8] = system: blackgrass (Alopecurus myosuroides); experiment: Test B pre-/postemergence plant response; conditions: for Blackgrass plant response rating (0 to 100 scale): 0 is no effect
Summary of the method: as §2

[9] = system: cocklebur (Xanthium strumarium); experiment: Test B pre-/postemergence plant response
Summary of the method: as §2

[10] = system: lambsquarters (Chenopodium album); experiment: Test B pre-/postemergence plant response
Summary of the method: as §2

[11] = 8 g ai/ha, Postemergence, 0 to 100 scale
[12] = 16 g ai/ha, Postemergence, 0 to 100 scale
[13] = Postemergence, 31 g ai/ha, 0 to 100 scale (0 no effect, 100 complete control)
[14] = 62 g ai/ha, postemergence, 100 is complete control, 13 to 15 days
[15] = Postemergence, 31 g ai/ha, scale 0 to 100 (0 no effect, 100 complete control)
[16] = Postemergence, 62 g ai/ha, scale 0 (no effect) to 100 (complete control), 13 to 15 days
[17] = Postemergence, 125 g ai/ha, visual rating after 13 to 15 days, scale 0 (no effect) to 100 (complete control)
[18] = Postemergence, 250 g ai/ha, scale 0 to 100
[19] = 250 g ai/ha, Preemergence, 0 to 100 scale
[20] = Preemergence, 31 g ai/ha, scale 0 to 100 (0 no effect, 100 complete control)
[21] = Preemergence, 125 g ai/ha, 0 to 100 scale
[22] = Preemergence, 62 g ai/ha, scale 0 to 100 (0 no effect, 100 complete control)
[23] = 31 g ai/ha, postemergence, scale 0 to 100, 0 is no effect, 100 is complete control
[24] = 62 g ai/ha, postemergence, 0 is no effect, 100 is complete control, 13 to 15 days
[25] = Postemergence, 125 g ai/ha, scale 0 to 100 (0 no effect, 100 complete control)
[26] = Postemergence, 250 g ai/ha, scale 0 to 100 (0 no effect, 100 complete control)

Cc1ccccc1-n1c(-c2cc(F)cc(F)c2)ncc(C(=O)C2=C(O)CCCC2=O)c1=O [Compound 159]
Plant response rating, Canarygrass [1, 11]: 25 | Plant response rating, Canarygrass [1, 12]: 40 | Plant response rating, Canarygrass [1, 13]: 80 | Plant response rating, Windgrass ([2]; 8 g ai/ha, 0 to 100 scale): 10 | Plant response rating, Windgrass ([2]; 16 g ai/ha, 0 to 100 scale): 40 | Plant response rating, Windgrass ([2]; 31 g ai/ha, 0 to 100 scale (0 no effect, 100 complete control)): 45 | Plant response rating, Chickweed [3, 11]: 80 | Plant response rating, Chickweed [3, 12]: 100 | Plant response rating, Chickweed [3, 13]: 100 | Plant response rating, Kochia (kochia (Kochia scoparia); [11]): 20 | Plant response rating, Kochia (kochia (Kochia scoparia); [12]): 20 | Plant response rating, Kochia (kochia (Kochia scoparia); [13]): 40 | Plant response rating, Soybean (soybean (Glycine max); [11]): 80 | Plant response rating, Soybean (soybean (Glycine max); [12]): 85 | Plant response rating, Soybean (soybean (Glycine max); [13]): 95 | Plant response rating, Wheat [4, 11]: 10 | Plant response rating, Wheat [4, 12]: 35 | Plant response rating, Wheat [4, 13]: 40 | Plant response rating, Surinam Grass [5, 11]: 65 | Plant response rating, Surinam Grass [5, 12]: 65 | Plant response rating, Surinam Grass [5, 13]: 75 | Plant response rating, Oat, Wild (wild oat (Avena fatua); [11]): 0 | Plant response rating, Oat, Wild (wild oat (Avena fatua); [12]): 35 | Plant response rating, Oat, Wild (wild oat (Avena fatua); [13]): 60 | Plant response rating, Velvetleaf [6, 11]: 98 | Plant response rating, Velvetleaf [6, 12]: 100 | Plant response rating, Velvetleaf [6, 13]: 100 | Plant response rating, Pigweed [7, 11]: 55 | Plant response rating, Pigweed [7, 12]: 75 | Plant response rating, Pigweed [7, 13]: 95 | Plant response rating, Blackgrass [8, 11]: 0 | Plant response rating, Blackgrass [8, 12]: 5 | Blackgrass plant response rating (0 to 100 scale) [8, 14]: 25 | Plant response rating, Blackgrass [8, 13]: 20 | Plant response rating, Cocklebur [9, 11]: 75 | Plant response rating, Cocklebur [9, 12]: 80 | Plant response rating, Cocklebur [9, 13]: 95 | Plant response rating, Lambsquarters [10, 11]: 90 | Plant response rating, Lambsquarters [10, 12]: 95 | Plant response rating, Lambsquarters [10, 13]: 100

Cc1ccc(F)cc1-n1c(-c2ccccc2)ncc(C(=O)C2=C(O)CCCC2=O)c1=O [Compound 44]
Plant response rating, Canarygrass [1, 15]: 20 | Plant response rating, Canarygrass [1, 16]: 20 | Plant response rating, Canarygrass [1, 17]: 30 | Canarygrass plant response rating [1, 18]: 40 | Plant response rating, Windgrass ([2]; 62 g ai/ha, scale 0 (no effect) to 100 (complete control), 13 to 15 days): 70 | Plant response rating, Windgrass ([2]; 125 g ai/ha, visual rating after 13 to 15 days, scale 0 (no effect) to 100 (complete control)): 85 | Plant response rating, Chickweed [3, 15]: 90 | Plant response rating, Chickweed [3, 16]: 95 | Plant response rating, Chickweed [3, 17]: 98 | Chickweed plant response rating [3, 18]: 100 | Plant response rating, Kochia (kochia (Kochia scoparia); [16]): 75 | Plant response rating, Kochia (kochia (Kochia scoparia); [17]): 75 | Kochia plant response rating (kochia (Kochia scoparia); [18]): 95 | Plant response rating, Soybean (soybean (Glycine max); [19]): 0 | Plant response rating, Soybean (soybean (Glycine max); [16]): 95 | Plant response rating, Soybean (soybean (Glycine max); [17]): 95 | Plant response rating, Soybean (soybean (Glycine max); [20]): 0 | Soybean plant response rating (soybean (Glycine max); [21]): 0 | Plant response rating, Wheat [4, 19]: 0 | Plant response rating, Wheat [4, 16]: 10 | Plant response rating, Wheat [4, 17]: 30 | Plant response rating, Wheat [4, 20]: 0 | Wheat plant response rating [4, 21]: 0 | Plant response rating, Surinam Grass [5, 19]: 100 | Plant response rating, Surinam Grass [5, 16]: 95 | Plant response rating, Surinam Grass [5, 17]: 95 | Plant response rating, Surinam Grass [5, 20]: 65 | Surinam Grass plant response rating [5, 21]: 90 | Plant response rating, Oat, Wild (wild oat (Avena fatua); [19]): 30 | Plant response rating, Oat, Wild (wild oat (Avena fatua); [16]): 80 | Plant response rating, Oat, Wild (wild oat (Avena fatua); [17]): 80 | Plant response rating, Oat, Wild (wild oat (Avena fatua); [20]): 0 | Oat, Wild plant response rating (wild oat (Avena fatua); [21]): 5 | Plant response rating, Velvetleaf [6, 19]: 100 | Plant response rating, Velvetleaf [6, 16]: 98 | Plant response rating, Velvetleaf [6, 17]: 100 | Plant response rating, Velvetleaf [6, 20]: 75 | Velvetleaf plant response rating [6, 21]: 100 | Plant response rating, Pigweed [7, 19]: 100 | Plant response rating, Pigweed [7, 16]: 95 | Plant response rating, Pigweed [7, 17]: 98 | Plant response rating, Pigweed [7, 20]: 98 | Pigweed plant response rating [7, 21]: 100 | Plant response rating, Blackgrass [8, 19]: 60 | Plant response rating, Blackgrass [8, 15]: 0 | Plant response rating, Blackgrass [8, 16]: 10 | Plant response rating, Blackgrass [8, 17]: 30 | Blackgrass plant response rating [8, 18]: 30 | Plant response rating, Blackgrass [8, 20]: 5 | Plant response rating, Blackgrass [8, 22]: 30 | Blackgrass plant response rating [8, 21]: 40 | Plant response rating, Cocklebur [9, 19]: 45 | Plant response rating, Cocklebur [9, 15]: 80 | Plant response rating, Cocklebur [9, 16]: 80 | Plant response rating, Cocklebur [9, 17]: 90 | Cocklebur plant response rating [9, 18]: 98 | Plant response rating, Lambsquarters [10, 19]: 100 | Plant response rating, Lambsquarters [10, 16]: 95 | Plant response rating, Lambsquarters [10, 17]: 95 | Lambsquarters plant response rating [10, 18]: 98 | Plant response rating, Lambsquarters [10, 20]: 100 | Plant response rating, Lambsquarters [10, 22]: 100 | Lambsquarters plant response rating [10, 21]: 100

CCCn1c(-c2ccc(F)cc2)ncc(C(=O)C2=C(O)CCCC2=O)c1=O [Compound 102]
Plant response rating, Canarygrass [1, 23]: 5 | Canarygrass plant response rating (0 to 100 scale) [1, 24]: 20 | Plant response rating, Canarygrass [1, 25]: 30 | Plant response rating, Canarygrass [1, 26]: 50 | Windgrass plant response rating (0 to 100 scale) [2, 24]: 10 | Plant response rating, Windgrass ([2]; 125 g ai/ha, scale 0 to 100 (0 no effect, 100 complete control)): 60 | Plant response rating, Chickweed [3, 23]: 60 | Chickweed plant response rating (0 to 100 scale) [3, 24]: 80 | Plant response rating, Chickweed [3, 25]: 95 | Plant response rating, Chickweed [3, 26]: 100 | Plant response rating, Kochia (kochia (Kochia scoparia); [23]): 65 | Kochia plant response rating (0 to 100 scale) (kochia (Kochia scoparia); [24]): 70 | Plant response rating, Kochia (kochia (Kochia scoparia); [25]): 100 | Plant response rating, Kochia (kochia (Kochia scoparia); [26]): 100 | Soybean plant response rating (0 to 100 scale) (soybean (Glycine max); [24]): 85 | Plant response rating, Soybean (soybean (Glycine max); [25]): 95 | Plant response rating, Soybean (soybean (Glycine max); [26]): 100 | Wheat plant response rating (0 to 100 scale) [4, 24]: 10 | Plant response rating, Wheat [4, 25]: 20 | Surinam Grass plant response rating (0 to 100 scale) [5, 24]: 75 | Plant response rating, Surinam Grass [5, 25]: 75 | Plant response rating, Surinam Grass [5, 26]: 85 | Plant response rating, Oat, Wild (wild oat (Avena fatua); [23]): 5 | Oat, Wild plant response rating (0 to 100 scale) (wild oat (Avena fatua); [24]): 15 | Plant response rating, Oat, Wild (wild oat (Avena fatua); [25]): 40 | Plant response rating, Oat, Wild (wild oat (Avena fatua); [26]): 80 | Velvetleaf plant response rating (0 to 100 scale) [6, 24]: 100 | Plant response rating, Velvetleaf [6, 25]: 100 | Plant response rating, Velvetleaf [6, 26]: 100 | Plant response rating, Pigweed [7, 23]: 70 | Pigweed plant response rating (0 to 100 scale) [7, 24]: 70 | Plant response rating, Pigweed [7, 25]: 95 | Plant response rating, Pigweed [7, 26]: 98 | Plant response rating, Blackgrass [8, 23]: 0 | Blackgrass plant response rating (0 to 100 scale) [8, 14]: 5 | Plant response rating, Blackgrass [8, 25]: 30 | Plant response rating, Blackgrass [8, 26]: 45 | Plant response rating, Cocklebur [9, 23]: 90 | Cocklebur plant response rating (0 to 100 scale) [9, 24]: 95 | Plant response rating, Cocklebur [9, 25]: 100 | Plant response rating, Cocklebur [9, 26]: 100 | Plant response rating, Lambsquarters [10, 23]: 95 | Lambsquarters plant response rating (0 to 100 scale) [10, 24]: 98 | Plant response rating, Lambsquarters [10, 25]: 100 | Plant response rating, Lambsquarters [10, 26]: 100
